The results in this text go back to patent US12171840B2, “Anti-mesothelin antibody and antibody drug conjugate thereof” (Remegen, Ltd., priority 2018, dated 2024).

“And” between values parts separate entries of the source, which are not always exact repeats. Equal entries are not always repeated. Where two headings read alike, the source gives them in different places. Starred links: 1 amine or outer side, 2 acyl side, 3 side chain; linkers in the order of their positions; H or OH if unused. Non-standard residues stand in square brackets, D forms with d. Residues, ends and D or L forms follow the SMILES beside them. *: point of attachment. Dolaproine = CO[C@@H]([C@@H]1CCCN1)[C@@H](C)C(=O)O; Hexanoyl(6-maleimido) = O=C1C=CC(=O)N1CCCCCC(=O)*; Dil = CC[C@H](C)[C@H](NC)[C@@H](CC(=O)O)OC; PABC = O=C(OCc1ccc(N[*:1])cc1)[*:2]; Doe = c1ccc(C[C@H](N*)c2nccs2)cc1; X1 = C[C@@H](N*)[C@@H](O)c1ccccc1; Cit = NC(=O)NCCC[C@H](N)C(=O)O; NMeV = CN[C@H](C(=O)O)C(C)C

In general, IC50 refers to the concentration needed to halve the response being measured. The T/C is the ratio of treated to control.

One data set concerns Oval-Citar-3-MSLN cells. Put plainly: Cytotoxic activity (CCK-8) in Oval-Citar-3 cells with high expression of MSLN. The note with it: for IC50: read-out: cytotoxicity IC50.
Data set [1] deals with Oval-Citar-3 human ovarian cancer bearing mouse model with high expression of MSLN. Put plainly: Anti-tumor experiment of RC88-Py-MAA-Val-Cit-PAB-MMAE, dose groups and controls, in Oval-Citar-3-MSLN tumor-bearing nude mice (Example 6). The class given is in vivo.
Method: Oval-Citar-3-MSLN cells (2×10^6) in normal growth state were subcutaneously inoculated in nude mice (Changzhou Cavans Laboratory Animal Co., Ltd., certificate number: 201611240, license number: SCXK (Su) 2011-0003), and the animals were randomized after the tumor volume grew to approximately 100-400 mm^3. […] 3 times in total (PTX was administered twice a week, 6 times in total), and the negative control group was administrated with the equal amount of physiological saline at the same time.
Setting [2] is: OVal-CitAR3-MSLN, 72 hours, CCK-8, N = 3.
The mark [3] stands for this setting: 10 mg/kg twice a week, 6 times in total, after 21 days of administration.

Method for Oval-Citar-3-MSLN cells: Oval-Citar-3-MSLN cells in good growth state were added to a 96-well cell culture plates (5×10^4 cells/mL. 100 μL/well), and incubated overnight at 37° C. in a CO2 incubator. […] After dilution, they were added to 96 plates (100 μL/well), and a blank group (equal volume of medium without drug) and three control groups were set, and incubation was carried out in a CO2 constant temperature incubator at 37° C. for 72 hours. A medium (without FBS) that contained 10 μL of CCK-8 at a dose of 100 μL/well was added, incubated at 37° C. for 2 to 4 hours in a CO2 incubator, and the OD values at 450 nm were read with a microplate reader. The inhibition rate was calculated by the following formula: IR %=(ODblank−ODdrug)×100/ODblank.

Regarding `CC[C@H](C)[C@@H]([C@@H](CC(=O)N1CCC[C@H]1[C@H](OC)[C@@H](C)C(=O)N[C@@H](Cc1ccccc1)c1nccs1)OC)N(C)C(=O)[C@@H](NC(=O)[C@@H](NC)C(C)C)C(C)C` [MMAD, monomethyl auristatin D] (H-[NMeV]V[Dil][Dolaproine]-Doe), in the data set with Oval-Citar-3-MSLN cells (setting [2]), the “Inhibition rate, % (maximum inhibition rate)” value (shortened to “Inhibition rate, %”) is given as 98.1 ± 2.4%; the “cytotoxicity IC50” value was found to be 0.1169 ± 0.0074 ng/mL; the IC50 was found to be 0.152 ± 0.01 nM.

For the compound `CC[C@H](C)[C@@H]([C@@H](CC(=O)N1CCC[C@H]1[C@H](OC)[C@@H](C)C(=O)N[C@H](C)[C@@H](O)c1ccccc1)OC)N(C)C(=O)[C@@H](NC(=O)[C@@H](NC)C(C)C)C(C)C` [MMAE, monomethyl auristatin E] (H-[NMeV]V[Dil][Dolaproine]-X1), in the data set on Oval-Citar-3-MSLN cells (setting [2]), the “Inhibition rate, %” value was 96.9 ± 0.7%; the “cytotoxicity IC50” value is 0.3199 ± 0.0284 ng/mL; the IC50 was determined as 0.446 ± 0.0395 nM. Further, the “difference from the control (saline) group” value in data set [1] (0.06 mg/kg, once a week, 3 times in total, P>0.05) was “no significant difference”.

Consider `CC[C@H](C)[C@@H]([C@@H](CC(=O)N1CCC[C@H]1[C@H](OC)[C@@H](C)C(=O)N[C@H](C)[C@@H](O)c1ccccc1)OC)N(C)C(=O)[C@@H](NC(=O)[C@H](C(C)C)N(C)C(=O)OCc1ccc(NC(=O)[C@H](CCCNC(N)=O)NC(=O)[C@@H](NC(=O)CCCCCN2C(=O)C=CC2=O)C(C)C)cc1)C(C)C` [Mc-Val-Cit-PAB-MMAE] ({Hexanoyl(6-maleimido)}-V[Cit][PABC][NMeV]V[Dil][Dolaproine]-X1), for which, in the data set on Oval-Citar-3-MSLN cells (setting [2]), the “Inhibition rate, %” value worked out at 94.5 ± 0.8% and the “cytotoxicity IC50” value is around 663.4 ng/mL.

With `CC(=O)O[C@H]1C(=O)[C@@]2(C)[C@H]([C@H](OC(=O)c3ccccc3)[C@]3(O)C[C@H](OC(=O)[C@H](O)[C@@H](NC(=O)c4ccccc4)c4ccccc4)C(C)=C1C3(C)C)[C@]1(OC(C)=O)CO[C@@H]1C[C@@H]2O` [PTX, Paclitaxel], in the data set on Oval-Citar-3-MSLN cells (Homo sapiens, 72 h), the IC50 was 0.00109 µg/mL and 1.27 nM. In addition, the “Inhibition rate, %” value in the data set with Oval-Citar-3-MSLN cells (setting [2]) came out at 92.8 ± 1.5%. For the same compound, in data set [1] (setting [3]), the T/C is listed as below 40% and the “tumors completely eliminated (CR)” value is on record as “tumors were completely eliminated (CR) in two tumor-bearing mice”. For the same compound, the “tumor volume and RTV versus the control (saline) group” value in data set [1] (10 mg/kg twice a week, 6 times in total, after 21 days, P<0.05) is on record as “statistically different”.
